Tests used:
[1] = tested on: men with moderate-to-severe urinary symptoms and enlarged prostate glands; details: PLESS, 5 mg finasteride, four years; cited from earlier work
[2] = tested on: men with LUTS and BPH; assay: MTOPS trial of finasteride and doxazosin, alone or together, in men with BPH; Cox/competing risks models; assay type: in vivo, human; details: for Hazard Ratio: multivariable Cox model; for risk of AUR and/or SI in treated patients / risk of symptom progression in treated patients: within 4 years, result in words
Excerpt: Medical Therapy of Prostatic Symptoms (MTOPS) is a clinical research study sponsored by the National Institutes of Health (NIH). The study tested whether the oral drugs finasteride (Proscar®) and doxazosin (Cardura®), alone or together, can further delay or prevent further prostate growth in men with BPH.
MTOPS is the largest and longest study to test whether the drugs can stop noncancerous prostate growth. Seventeen U.S. medical centers recruited […] men diagnosed with symptomatic BPH between December 1995 and March 1998. The study doctors continued to follow these men through November 2001 on a quarterly basis. In addition to the clinical progression of BPH, MTOPS included evaluations of prostate volume by ultrasound, prostate histopathobiology, quality of life and urodynamics. (Funding by NIDDK (UO1-DK-46472), 1992-2002; IND 43,564; http://www.bsc.gwu.edu/mtops/; McConnell et al., 2003).)
Herein described is the development of a nomogram similar to that shown in Examples 1 and 3 using data from the MTOPS study. In this double-blind, randomized, placebo-controlled trial, 3047 men with moderate-to-severe urinary symptoms and enlarged prostate glands were randomized to receive either 1) doxazosin+placebo; 2) finasteride+placebo; 3) doxazosin+finasteride; or 4) placebo+placebo for a minimum of four and a maximum of six years, with an average follow-up of five years. Complete data on outcomes were available for 3047 men and frozen sera was archived at baseline.
(§1) Intent-to-treat, competing risks methodology was employed to model the 3,047 men with LUTS and BPH randomized to the MTOPS trial, a 5 year, randomized, placebo-controlled study evaluating the efficacy and safety of BPH medical therapy. These men were characterized at baseline by a number of parameters, including patient age and race, AUA symptom index (AUA-SI), BPH Impact Index (BII), total prostate and TZ volume measured by ultrasound, total prostate specific antigen (PSA) level, maximum flow rate (Qmax) and post-void residual (PVR) urine volume. Cox proportional hazards regression was used to relate these baseline variables to their future probability of AUR/SI within 4 years. The nomogram was internally validated with bootstrapping to assess its discrimination and calibration. Discrimination was quantified as the concordance index (CI).
as §1, with “used” for “employed”, “(Qmax),” for “(Qmax)”, “reaching a symptom progression endpoint” for “AUR/SI”
Table 13 provides P values for a series of predictors, including BPSA levels, in a multivariate competing risks model for AUR and/or SI. BPSA is a novel serum marker for BPH, and independently predicts the risk of AUR and/or surgery in men with BPH. Thus, nomogram tools that incorporate BPSA levels may improve the ability to manage patients with BPH.

[3] = tested on: men with LUTS and BPH; parameters: Creatinine Rise, endpoint events: unit not given here; details: entire MTOPS cohort, number of events per treatment group; cited from earlier work
[4] = tested on: male subjects with BPH; details: cited from earlier work
[5] = tested on: male subjects with BPH; assay: Phase III placebo-controlled studies of dutasteride in men with BPH (ARIA 3001, 3002, 3003); Cox regression nomogram for AUR/SI within 2 years; assay type: in vivo, human
Excerpt: The use of single parameters to predict the risk of BPH progression or to determine the relative reduction potentially gained with 5ARI therapy is not optimal. Nomograms are prediction tools optimized for accuracy that utilize multiple parameters to predict specific outcomes. The objective of this study was to develop a prediction model, or nomogram, that would predict the probability that a person with BPH would experience AUR or require surgical intervention (SI) within two years, using data from the recently completed Phase III studies of dutasteride versus placebo in men with BPH (Roehrborn et al. 2002).
Data from three two-year multicenter, placebo-controlled, double-blind studies evaluating dutasteride 0.5 mg/day (n=2,167) or placebo (n=2,158) in male subjects with BPH were utilized to develop a nomogram. […] Most of the 4,325 subjects randomly assigned to receive either dutasteride or placebo completed 2 years of treatment (70% and 67%, respectively).
Subjects were characterized at baseline by a number of parameters, including AUA symptom index (AUA-SI) score, BPH impact index (BII) score, prostate volume, prostate specific antigen (PSA) level, maximum urinary flow rate (Qmax), and prior use of selective α1 blockers. Cox proportional hazards regression was used to relate these baseline variables to the future probability of developing AUR or requiring surgical intervention within 2 years. The nomogram was internally validated with bootstrapping, a re-sampling technique, to assess its discrimination and calibration. Discrimination was quantified as the concordance index, which is rated from 0.5 to 1.00. Calibration was assessed visually, by plotting observed proportions against predicted probabilities, again using bootstrapping to reduce over-fit bias.
With these benefits in mind, a nomogram was constructed to predict the risk of BPH progression using data from a phase III pivotal trial (ARIA 3001, 3002, 3003) used to establish the safety and efficacy of dutasteride prior to FDA approval. For each individual predictive parameter, points are awarded by drawing a perpendicular line to the point scale along the top of the nomogram. After all points are added, a perpendicular line is drawn from the bottom, total points scale to the line below, indicating the 2 year probability of a patient's developing retention or requiring BPH-related surgery within two years. Note that the use of dutasteride (versus placebo) leads to a total point score reduced by approximately 20 to 25 points, which translates to a 50% relative risk reduction across the entire range of total points for any patient. […] Thus, a 50% relative risk reduction over two years translates into about 13 to 14% absolute risk reduction over this very short time frame, with a much greater benefit likely experienced over time.

[6] = AUR/SI within 4 years, intent-to-treat, competing risks
[7] = symptom progression (4-point rise in AUA-SI) within 4 years
[8] = dutasteride 0.5 mg/day vs placebo, over 24 months

Row | SMILES | Hazard Ratio [2, 6] | Hazard Ratio [2, 7] | risk of AUR and/or SI in treated patients [2] | risk of symptom progression in treated patients [2] | AUA Rise, endpoint events [3] | BPH Invasive Therapy, events [3] | Creatinine Rise, endpoint events [3] | Incontinence, endpoint events [3] | Retention, endpoint events [3] | Total endpoint events [3] | UTI/urosepsis, endpoint events [3] | further results
1 | CC(C)(C)NC(=O)[C@H]1CC[C@H]2[C@@H]3CC[C@H]4NC(=O)C=C[C@]4(C)[C@H]3CC[C@]12C [finasteride] | 0.3506 | 0.6961 | reduced risk of AUR and/or SI | significantly reduced risk of symptom progression | 74 | 15 | 0 | 9 | 6 | 89 | 0 | incidence of BPH-related surgery [1]: 5%; incidence of precipitated AUR [1]: 2%; incidence of spontaneous AUR [1]: 1%; overall incidence of AUR [1]: 4%
2 | C[C@]12C=CC(=O)N[C@@H]1CC[C@@H]1[C@@H]2CC[C@]2(C)[C@@H](C(=O)Nc3cc(C(F)(F)F)ccc3C(F)(F)F)CC[C@@H]12 [dutasteride] | – | – | – | – | – | – | – | – | – | – | – | patients who had experienced AUR and/or surgical intervention at endpoint ([4]; at endpoint, 2-year studies): 3.5%; reduction in the need for BPH-related surgery [4, 8]: 48%; reduction in the risk of AUR [4, 8]: 57%; relative risk reduction across the entire range of total points ([5]; 2-year AUR/SI nomogram): 50%; Hazard Ratio (95% CIs) ([5]; full multivariate Cox model, AUR or surgical intervention within 2 years, dutasteride vs placebo group): 0.50 (0.37, 0.66); absolute risk reduction ([5]; over two years, most severely affected patients (27% maximum risk)): 13 to 14%; reduction of nomogram total point score ([5]; use of dutasteride versus placebo, 2-year AUR/SI nomogram): 20 to 25 points; relative risk reduction of AUR and/or surgical intervention ([5]; vs placebo, at endpoint): 50%
3 | COc1cc2nc(N3CCN(C(=O)C4COc5ccccc5O4)CC3)nc(N)c2cc1OC (stereo not shown) [doxazosin] | 0.7154 | 0.5278 | not | significantly reduced risk of symptom progression | 59 | 41 | 0 | 11 | 13 | 85 | 2 | –
